The subject of one assay is Culex quinquefasciatus. The following applies: electrophysiology test, reported in a published article; cited from earlier work.
The test system of assay [1] is mosquitoes. The assay can be described thus: Field trap catch, Hock Model 1012 traps: CO2 plus 1,5Z-octadien-3-ol vs CO2 alone (Example 1). The format is in vivo. The text has this:
(§1) Although, as stated above, this invention may be employed with any suitable trap or system, the invention has been tested and employed in a trap or system as described hereinafter. Mosquito traps Model 1012 manufactured by John W. Hock Company in Gainesville, Fla. were used in these tests. The traps use a stream of CO2 directed in the vicinity of a collection bag, with a fan used to blow mosquitoes into the bag. The light supplied to the trap was turned off. The traps were spaced 65-70 feet apart at the edge of a wetland in Danbury, Conn., at least 25 feet from any buildings. The 1,5-octadien-3-ol component was incorporated into a wax lure of the type manufactured by BioSensory, Inc. and placed near a stream of CO2 which was being released at a rate of approximately 150 ml/minute. The traps were operated from approximately 4:00 PM until 9:00 AM the next day. Daytime temperatures were approximately 70-75° F. during the trials.
To establish a baseline control the Hock traps with just CO2, and no added 1,5-octadien-3-ol component, were operated in the two areas on three days. The trap in area 1 (Trap A) caught 32 of the mosquitoes caught, and the trap in area 2 (Trap B) caught 23 of the mosquitoes caught. […]

In assay [2] the test system is mosquitoes. Kind of assay: Field trap catch, Hock traps: r-1-octen-3-ol with or without r-1,5Z-octadien-3-ol (Example 2). The format is in vivo. The conditions noted are these: for mosquitoes caught: Traps A and B, twelve day test period, attractant in 2 ml diethyl phthalate, 0.04 g r-1,5Z-octadien-3-ol tested together with 0.2 g r-1-octen-3-ol, r-1-octen-3-ol alone at 2 g.
Text: as §1
This test was conducted over a twelve-day period. The test was conducted to determine if 1,5-octadien-3-ol increases the trap catch of mosquitoes when added to a trap already containing the known attractant r-1-octen-3-ol. Traps A in area 1 and B in area 2, as described in Example 1, were employed. Both traps A and B were tested with (1) 0.2 g 100% r-1-octen-3-ol+0.04 g r-1,5Z-octadien-3-ol. in 2 ml diethyl phthalate, and (2) with 2 g 100% r-1-octen-3-ol in 2 ml diethyl phthalate (i.e., with no 1,5Z-octadien-3-ol present). Over the twelve day test period the traps with the 1,5z-octadien-3-ol present caught 239 mosquitoes and the traps without the 1,5Z-octadien-3-ol present caught 221 mosquitoes. Thus, the presence of the 1,5Z-octadien-3-ol increased the catch of mosquitoes by 8%.

Take `C=CC(O)CC=CCC` (stereo not drawn) [1,5-octadien-3-ol]: in the assay with Culex quinquefasciatus, the “ability to attract mosquitoes” value is “confirmed”. With `C=CC(O)C/C=C\CC` (stereo not drawn) [1,5Z-octadien-3-ol], the mosquitoes caught in the assay on mosquitoes [1] (Trap A (area 1), compound in trap plus 150 ml/minute CO2, four day test period, Trap B with CO2 only caught 35) is recorded as 84 mosquitoes. Moreover, the “catch ratio Trap A to Trap B” value with mosquitoes [1] (Trap A with compound plus CO2 vs Trap B with CO2 only, four days, baseline catch ratio 1.4 with CO2 only in both traps) is 2.4. For `C=C[C@H](O)C/C=C\CC` [r-1,5Z-octadien-3-ol], in the assay on mosquitoes [2], the mosquitoes caught stood at 239 mosquitoes. In addition, the “increase of the catch of mosquitoes” value in the assay on mosquitoes [2] (r-1-octen-3-ol plus r-1,5Z-octadien-3-ol vs r-1-octen-3-ol alone, twelve days) is given as 8%. Consider `C=C[C@H](O)CCCCC` [r-1-octen-3-ol, reference compound], for which the mosquitoes caught in the assay on mosquitoes [2] turned out to be 221 mosquitoes.
